Source: PMC10304470, “Characterization of the Antimicrobial Activities of Trichoplusia ni Cecropin A as a High-Potency Therapeutic against Colistin-Resistant Escherichia coli” (Pharmaceutics, 2023)
Peptide text beside a SMILES is read from it.

Experiments:
[1] = system: Klebsiella pneumoniae (NCCP 16054); format: cell-based; conditions: NCCP 16054, 16 h
Text: (§1) E. coli (KCTC 1682) was obtained from the Korean Collection for Type Cultures (KCTC, Jeongeup, Republic of Korea), and Acinetobacter baumannii (KCCM 40203) and Pseudomonas aeruginosa (KCCM 11328) from the Korea Culture Center of Microorganisms (KCCM, Seoul, Republic of Korea). Klebsiella pneumoniae (NCCP 16054), colistin-resistant E. coli NMA 1557 (ColREC 1557), NMS 12 (ColREC 12), and colistin-resistant A. baumannii NMS 1915 (ColRAB 1915), as well as colistin-resistant K. pneumoniae NMS 139 (ColRKP 139), were obtained from the National Institute of Health Multidrug Resistant Bacteria Specialized Pathogen Resources Bank (Osong, Republic of Korea).
(§2) The antibacterial abilities of the peptides (T. ni cecropin, cecropin A, polymyxin B, colistin, and melittin) were determined using the broth dilution method as previously reported. The peptides dissolved at 10 mg/mL in deionized water were serially diluted from 64 μM to 0.5 μM in 96-well plates using Mueller–Hinton (MH) broth, and bacteria cultured to exponential growth were added at 2 × 10^5 cells/mL. The group of bacteria that grew untreated in the broth was set as the positive control, and the uninoculated broth as the negative control. Dissolved peptides are colorless and equal to the OD value of the medium only. After 16 h incubation at 37 °C, the absorbance at 600 nm was measured using a SpectraMAX microplate reader (Molecular Devices, San Jose, CA, USA).

[2] = system: Pseudomonas aeruginosa (KCCM 11328); format: cell-based; conditions: KCCM 11328, 16 h
Text: as §1, §2

[3] = system: Acinetobacter baumannii (KCCM 40203); format: cell-based; conditions: KCCM 40203, 16 h
Text: as §1, §2

[4] = system: colistin-resistant K. pneumoniae NMS 139 (ColRKP 139); format: cell-based, Klebsiella pneumoniae; conditions: MH broth, 2 × 10^5 cells/mL, 16 h, 37 °C, OD600, >95% killing
Text: as §1, §2

[5] = system: ColREC 1557-stimulated RAW 264.7 cells; experiment: IL-6 secretion in ColREC 1557-infected macrophages, ELISA; format: cell-based, mouse; conditions: 1.3 μM peptide, 1 h before ColREC 1557 infection
Experimental: (§3) Interleukin-6 (IL-6)-specific enzyme-linked immunosorbent assays (ELISA; R&D Systems, Minneapolis, MN, USA) were performed according to the method specified by the manufacturer. Briefly, cell culture supernatants were added to immune plates treated with the capture antibody, followed by the detection antibody and streptavidin-horseradish peroxidase. For each step, the plates were washed twice with PBS containing 0.05% Tween 20. The plates were incubated with tetramethylbenzidine substrate (Invitrogen, Carlsbad, CA, USA), and the reaction was stopped with 2 N H2SO4 to measure absorbance at 450 nm. A standard graph of each marker was plotted and quantified.
(§4) To investigate the inflammatory response induced by ColREC 1557, RAW 264.7 cells (1 × 10^5 cells/well) were treated with various concentrations of peptide (0.6 to 10 μM) 1 h before bacterial infection. The control was an untreated cell. ColREC 1557 that had been cultured in LB broth overnight and sub-cultured to the exponential phase were harvested, suspended in DMEM, and used to infect RAW 264.7 cells to a final concentration of 1 × 10^5 cells/well. Subsequent nitrite and IL-6 detection was performed as described in Section 2.15.

[6] = system: LPS-stimulated RAW 264.7 cells; experiment: Nitrite (NO) production in LPS-stimulated macrophages, Griess; format: cell-based, mouse; conditions: 5 μM peptide, 1 h pretreatment, 20 ng/mL LPS, 16 h
Experimental: (§5) Murine macrophage RAW 264.7 cells were used to measure the anti-inflammatory activities of peptides. Culture plates (96-well) were seeded at a density of 1 × 10^5 cells/well and stimulated with 20 ng/mL LPS (O111:B4; Sigma-Aldrich) for 16 h after 1 h pretreatment with each concentration of peptide (0.6 to 10 μM). The control is an untreated cell. The culture supernatant was added to an equal volume of Griess reagent (Sigma-Aldrich), and the absorbance was measured at 540 nm. Nitrite production was quantified using a standard curve constructed using NaNO2.

[7] = system: LPS-stimulated RAW 264.7 cells; experiment: IL-6 secretion in LPS-stimulated macrophages, ELISA; format: cell-based, mouse; conditions: 5 μM peptide, 1 h pretreatment, 20 ng/mL LPS, 16 h
Experimental: as §5, §3

L-929 cells = experiment: Cytotoxicity, WST-8; format: cell-based, mouse; conditions: up to 100 μM peptide, 24 h
Experimental: (§6) Murine macrophage RAW 264.7 cells and mouse fibroblast L-929 cells were used for research and were purchased from the Korea Cell Line Bank (Seoul, Republic of Korea). Both cells were cultured in Dulbecco’s Modified Eagle’s Medium (DMEM; Welgene, Gyeongsan, Republic of Korea) supplemented with 10% fetal bovine serum and 1% antibiotics (penicillin/streptomycin) at 37 °C in the presence of 5% CO2. To measure the cytotoxicities of peptides against RAW 264.7 cells and L-929 cells, both cell lines were seeded at a density of 1 × 10^5 cells/well in a 96-well plate, to which each concentration of peptide solution (from 1.6 μM to 100 μM) was added, followed by incubation for 22 h. Subsequently, WST-8 (Biomax Co., Ltd., Guri, Republic of Korea) was added at 10% volume of the final solution, and the mixture was incubated for an additional 2 h. Absorbance was measured at 450 nm. Percentages were calculated based on untreated cells.

RAW 264.7 cells = experiment: Cytotoxicity, WST-8; format: cell-based, mouse; conditions: 100 μM peptide, 24 h
Experimental: as §6

all bacterial strains = experiment: Average MIC over all strains and relative selective index; format: cell-based; conditions: 8 strains; MIC above 64 μM taken as 128 μM
Experimental: as §2

ColREC 12 = experiment: Biofilm inhibition assay, crystal violet; format: cell-based, Escherichia coli; conditions: ColREC 12, 2 μM peptide, 16 h
Experimental: To quantify the biofilm inhibitory activity of each peptide, ColREC 1557 and ColREC 12 were cultured in Luria–Bertani (LB) broth overnight and then sub-cultured in MH broth. Different concentrations of peptide (from 1 μM to 64 μM) were prepared in 96-well plates using MH broth (containing 0.2% glucose) and incubated with bacteria (2 × 10^5 cells/mL) at 37 °C for 16 h. After incubation, the culture medium was removed and methanol was added as a fixative for 15 min. The completely dried plates were stained for 2 h by adding 100 μL of staining solution (0.1% (w/v) crystal violet in 0.25% (v/v) acetic acid). The residual staining solution was gently rinsed off three times using distilled water. Subsequently, 90% ethanol was used to dissolve the dye, and absorbance was measured at 600 nm. The untreated bacterial group was used as a control to compare biofilm production rates.

[8] = system: ColREC 1557-stimulated RAW 264.7 cells; experiment: Nitrite (NO) production in ColREC 1557-infected macrophages; format: cell-based, mouse; conditions: 1.3 μM peptide, 1 h before ColREC 1557 infection
Experimental: as §4

## CC[C@H](C)CCCCC(=O)N[C@@H](CCN)C(=O)N[C@H](C(=O)N[C@@H](CCN)C(=O)N[C@H]1CCNC(=O)[C@H]([C@@H](C)O)NC(=O)[C@H](CCN)NC(=O)[C@H](CCN)NC(=O)[C@H](CC(C)C)NC(=O)[C@@H](CC(C)C)NC(=O)[C@H](CCN)NC1=O)[C@@H](C)O [colistin] (HELM PEPTIDE1{[CC[C@H](C)CCCCC(=O)[*:2]].[Dab].T.[Dab].[Dab].[Dab].[dL].L.[Dab].[Dab].T}$PEPTIDE1,PEPTIDE1,5:R3-11:R2$$$V2.0; N-terminus assumed; bridges inferred)
[1]
  Minimal Inhibitory Concentration: 0.25 µM
[2]
  Minimal Inhibitory Concentration: 1 µM
[3]
  Minimal Inhibitory Concentration: 0.25 µM
[4]
  Minimal Inhibitory Concentration: >64 µM
[5]
  inhibition of IL-6: 18.4%
[6]
  inhibition of NO: over 90%
[7]
  inhibition of IL-6 secretion: over 90%
L-929 cells
  viability / survival rate: 95.0%
RAW 264.7 cells
  cell viability: 70.1%
All bacterial strains
  GM (geometric mean, average MIC value of all bacterial strains): 33.72 µM
ColREC 12
  inhibition of biofilm formation: 28.9%
[8]
  inhibition of NO: 24.7%
